Key:
bamyardgrass = test: Test B flood test barnyardgrass; type: in vivo, Echinochloa crus-galli
Summary of the method: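 Plants were grown to the 2-leaf stage before treatment with test chemical, then held in a greenhouse for twelve to sixteen days. Injury was visually rated against untreated controls on a 0–10 scale, where 0 is no effect and 10 is complete control.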

surinam grass = test: Test B pre/postemergence surinam grass; type: in vivo, Brachiaria decumbens; conditions: for B. signalgrass plant response rating (0 to 10 scale): 0 is no effect
Summary of the method: (§1)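 Test chemicals in a non-phytotoxic solvent mixture with surfactant were sprayed preemergence onto planted seeds and postemergence onto plants 2 to 18 cm tall (1- to 4-leaf stage). After twelve to sixteen days in a greenhouse, injury was visually rated against untreated controls from 0 (no effect) to 10 (complete control).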

blackgrass = test: Test B pre/postemergence blackgrass; type: in vivo, Alopecurus myosuroides; conditions: for Blackgrass plant response rating (0 to 10 scale): 0 is no effect
Summary of the method: as §1

sugar beet = test: Test B pre/postemergence sugar beet; type: in vivo, Beta vulgaris; conditions: for Sugarbeets plant response rating (0 to 10 scale): 0 is no effect
Summary of the method: as §1

[1] = Rate 62 g/ha, headed Pre-emergence (flood test species), scale 0 to 10 (0 no effect, 10 complete control)
[2] = Rate 125 g/ha, Pre-emergence, flood test species, scale 0 to 10 where 0 is no effect and 10 is complete control
[3] = Rate 250 g/ha, Pre-emergence, flood-test species, scale 0 to 10, 0 is no effect, 10 is complete control
[4] = Rate 500 g/ha, headed Pre-emergence (flood test species), scale 0 to 10 (0 no effect, 10 complete control)
[5] = Postemergence, Rate 125 g/ha, scale of 0 to 10 where 0 is no effect and 10 is complete control
[6] = Preemergence, Rate 62 g/ha, scale of 0 to 10 where 0 is no effect and 10 is complete control
[7] = Preemergence, Rate 125 g/ha, 10 is complete control
[8] = Preemergence, Rate 250 g/ha, scale 0 to 10, 0 is no effect, 10 is complete control
[9] = Preemergence, Rate 500 g/ha, scale 0 to 10 (0 no effect, 10 complete control)
[10] = Rate 62 g/ha, Postemergence, scale of 0 to 10 where 0 is no effect and 10 is complete control
[11] = Rate 250 g/ha, Postemergence, scale 0 to 10, 0 is no effect, 10 is complete control
[12] = Rate 500 g/ha, Postemergence, scale 0 to 10, 0 no effect, 10 complete control
[13] = Rate 500 g/ha, Postemergence, scale 0 to 10
[14] = Preemergence, Rate 500 g/ha, scale of 0 to 10 where 0 is no effect and 10 is complete control
[15] = Rate 125 g/ha, Postemergence, scale 0 (no effect) to 10 (complete control)
[16] = Rate 125 g/ha, Postemergence, scale 0 to 10
[17] = Rate 500 g/ha, Pre-emergence, flood test species, scale 0 to 10 (0 no effect, 10 complete control)
[18] = Rate 125 g/ha, Preemergence, scale of 0 to 10 where 0 is no effect and 10 is complete control
[19] = Preemergence, Rate 250 g/ha, scale of 0 to 10 where 0 is no effect and 10 is complete control

CCN(Cc1ccccc1)C(=O)n1oc(=O)n(C(C)C)c1=O [Compound 166]
Barnyardgrass plant response rating (bamyardgrass; [1]): 0 | Barnyardgrass plant response rating (bamyardgrass; [2]): 0 | Barnyardgrass plant response rating (bamyardgrass; [3]): 0 | Plant response rating, Barnyardgrass (bamyardgrass; [4]): 0 | B. signalgrass plant response rating (surinam grass; [5]): 0 | B. signalgrass plant response rating (surinam grass; [6]): 0 | B. signalgrass plant response rating (0 to 10 scale) (surinam grass; [7]): 0 | B. signalgrass plant response rating (surinam grass; [8]): 0 | B. signalgrass plant response rating (surinam grass; [9]): 4 | B. signalgrass plant response rating (surinam grass; [10]): 0 | Plant response rating, B. signalgrass (surinam grass; [11]): 0 | B. signalgrass plant response rating (surinam grass; [12]): 0 | Blackgrass plant response rating (blackgrass; [5]): 4 | Blackgrass plant response rating (blackgrass; [6]): 0 | Blackgrass plant response rating (0 to 10 scale) (blackgrass; [7]): 0 | Blackgrass plant response rating (blackgrass; [8]): 4 | Blackgrass plant response rating (blackgrass; [9]): 5 | Blackgrass plant response rating (blackgrass; [10]): 0 | Plant response rating, Blackgrass (blackgrass; [11]): 7 | Blackgrass plant response rating (blackgrass; [13]): 8 | Sugarbeets plant response rating (sugar beet; [5]): 0 | Sugarbeets plant response rating (sugar beet; [6]): 0 | Sugarbeets plant response rating (0 to 10 scale) (sugar beet; [7]): 0 | Sugarbeets plant response rating (sugar beet; [8]): 0 | Sugarbeets plant response rating (sugar beet; [9]): 0 | Sugarbeets plant response rating (sugar beet; [10]): 0 | Plant response rating, Sugarbeets (sugar beet; [11]): 0 | Sugarbeets plant response rating (sugar beet; [13]): 0

Cc1ccccc1-n1c(=O)on(C(=O)N(c2cccc(F)c2F)C(C)C)c1=O [Compound 171]
Barnyardgrass plant response rating (bamyardgrass; Postemergence (flood test species), Rate 125 g/ha, scale of 0 to 10 where 0 is no effect and 10 is complete control): 0 | Barnyardgrass plant response rating (bamyardgrass; Rate 62 g/ha, Postemergence section, flood test species, scale of 0 to 10 where 0 is no effect and 10 is complete control): 0 | Plant response rating, Barnyardgrass (bamyardgrass; Rate 250 g/ha, Postemergence (flood test), scale 0 to 10, 0 is no effect, 10 is complete control): 0 | Barnyardgrass plant response rating (bamyardgrass; Rate 500 g/ha, listed under Postemergence (flood test species), scale 0 to 10): 0 | B. signalgrass plant response rating (surinam grass; [5]): 0 | B. signalgrass plant response rating (surinam grass; [6]): 0 | B. signalgrass plant response rating (0 to 10 scale) (surinam grass; [7]): 1 | B. signalgrass plant response rating (surinam grass; [8]): 3 | B. signalgrass plant response rating (surinam grass; [9]): 5 | B. signalgrass plant response rating (surinam grass; [10]): 0 | Plant response rating, B. signalgrass (surinam grass; [11]): 0 | B. signalgrass plant response rating (surinam grass; [12]): 0 | Blackgrass plant response rating (blackgrass; [5]): 0 | Blackgrass plant response rating (blackgrass; [6]): 0 | Blackgrass plant response rating (0 to 10 scale) (blackgrass; [7]): 0 | Blackgrass plant response rating (blackgrass; [8]): 0 | Blackgrass plant response rating (blackgrass; [9]): 2 | Blackgrass plant response rating (blackgrass; [10]): 0 | Plant response rating, Blackgrass (blackgrass; [11]): 0 | Blackgrass plant response rating (blackgrass; [13]): 0 | Sugarbeets plant response rating (sugar beet; [5]): 0 | Sugarbeets plant response rating (sugar beet; [6]): 0 | Sugarbeets plant response rating (0 to 10 scale) (sugar beet; [7]): 0 | Sugarbeets plant response rating (sugar beet; [8]): 0 | Sugarbeets plant response rating (sugar beet; [9]): 0 | Sugarbeets plant response rating (sugar beet; [10]): 0 | Plant response rating, Sugarbeets (sugar beet; [11]): 2 | Sugarbeets plant response rating (sugar beet; [13]): 2

Cc1nc(C)c(-n2c(=O)on(C(=O)N(c3ccc(F)cc3)C(C)C)c2=O)s1 [Compound 198]
Barnyardgrass plant response rating (bamyardgrass; [1]): 0 | Barnyardgrass plant response rating (bamyardgrass; [2]): 0 | Barnyardgrass plant response rating (bamyardgrass; [3]): 0 | Plant response rating, Barnyardgrass (bamyardgrass; [4]): 0 | B. signalgrass plant response rating (surinam grass; [6]): 0 | B. signalgrass plant response rating (0 to 10 scale) (surinam grass; [7]): 0 | B. signalgrass plant response rating (surinam grass; [8]): 0 | Plant response rating, B. signalgrass (surinam grass; [14]): 0 | B. signalgrass plant response rating (surinam grass; [10]): 0 | B. signalgrass plant response rating (surinam grass; [15]): 0 | Plant response rating, B. signalgrass (surinam grass; [11]): 0 | B. signalgrass plant response rating (surinam grass; [12]): 0 | Blackgrass plant response rating (blackgrass; [6]): 0 | Blackgrass plant response rating (0 to 10 scale) (blackgrass; [7]): 0 | Blackgrass plant response rating (blackgrass; [8]): 0 | Plant response rating, Blackgrass (blackgrass; [14]): 0 | Blackgrass plant response rating (blackgrass; [10]): 0 | Blackgrass plant response rating (blackgrass; [16]): 0 | Plant response rating (0 to 10; 0 is no effect, 10 is complete control), Blackgrass (blackgrass; Rate 250 g/ha, Postemergence): 0 | Blackgrass plant response rating (blackgrass; [13]): 0 | Sugarbeets plant response rating (sugar beet; [6]): 0 | Sugarbeets plant response rating (0 to 10 scale) (sugar beet; [7]): 0 | Sugarbeets plant response rating (sugar beet; [8]): 0 | Plant response rating, Sugarbeets (sugar beet; [14]): 0 | Sugarbeets plant response rating (sugar beet; [10]): 0 | Sugarbeets plant response rating (sugar beet; [16]): 0 | Plant response rating (0 to 10; 0 is no effect, 10 is complete control), Sugarbeets (sugar beet; Rate 250 g/ha, Postemergence): 0 | Sugarbeets plant response rating (sugar beet; [13]): 0

COc1cc(C)cc(C)c1-n1c(=O)on(C(=O)N(c2ccc(F)cc2)C(C)C)c1=O [Compound 222]
Barnyardgrass plant response rating (bamyardgrass; [1]): 0 | Barnyardgrass plant response rating (bamyardgrass; [2]): 0 | Barnyardgrass plant response rating (bamyardgrass; [3]): 0 | Barnyardgrass plant response rating (bamyardgrass; [17]): 0 | B. signalgrass plant response rating (surinam grass; [6]): 0 | B. signalgrass plant response rating (surinam grass; [8]): 0 | Plant response rating, B. signalgrass (surinam grass; [14]): 0 | B. signalgrass plant response rating (surinam grass; [10]): 0 | B. signalgrass plant response rating (surinam grass; [15]): 0 | B. signalgrass plant response rating (surinam grass; [18]): 0 | Plant response rating (0 to 10; 0 is no effect, 10 is complete control), B. signalgrass (surinam grass; Rate 250 g/ha, Postemergence): 0 | B. signalgrass plant response rating (surinam grass; [12]): 1 | Blackgrass plant response rating (blackgrass; [6]): 0 | Blackgrass plant response rating (blackgrass; [19]): 0 | Plant response rating, Blackgrass (blackgrass; [14]): 0 | Blackgrass plant response rating (blackgrass; [10]): 0 | Blackgrass plant response rating (blackgrass; [16]): 0 | Blackgrass plant response rating (blackgrass; [18]): 0 | Plant response rating (0 to 10; 0 is no effect, 10 is complete control), Blackgrass (blackgrass; Rate 250 g/ha, Postemergence): 3 | Blackgrass plant response rating (blackgrass; [12]): 4 | Sugarbeets plant response rating (sugar beet; [6]): 0 | Sugarbeets plant response rating (sugar beet; [19]): 0 | Plant response rating, Sugarbeets (sugar beet; [14]): 0 | Sugarbeets plant response rating (sugar beet; [10]): 0 | Sugarbeets plant response rating (sugar beet; [16]): 0 | Sugarbeets plant response rating (sugar beet; [18]): 0 | Plant response rating (0 to 10; 0 is no effect, 10 is complete control), Sugarbeets (sugar beet; Rate 250 g/ha, Postemergence): 0 | Sugarbeets plant response rating (sugar beet; [12]): 0

Cc1ccccc1-n1c(=O)on(C(=O)N(c2ccc(C(C)C)cc2)C(C)C)c1=O [Compound 231]
Barnyardgrass plant response rating (bamyardgrass; [1]): 0 | Barnyardgrass plant response rating (bamyardgrass; [2]): 0 | Barnyardgrass plant response rating (bamyardgrass; [3]): 0 | Barnyardgrass plant response rating (bamyardgrass; [17]): 0 | B. signalgrass plant response rating (surinam grass; [6]): 0 | B. signalgrass plant response rating (surinam grass; [8]): 0 | Plant response rating, B. signalgrass (surinam grass; [14]): 0 | B. signalgrass plant response rating (surinam grass; [10]): 0 | B. signalgrass plant response rating (surinam grass; [15]): 0 | B. signalgrass plant response rating (surinam grass; [18]): 0 | Plant response rating (0 to 10; 0 is no effect, 10 is complete control), B. signalgrass (surinam grass; Rate 250 g/ha, Postemergence): 0 | B. signalgrass plant response rating (surinam grass; [12]): 0 | Blackgrass plant response rating (blackgrass; [6]): 0 | Blackgrass plant response rating (blackgrass; [19]): 0 | Plant response rating, Blackgrass (blackgrass; [14]): 0 | Blackgrass plant response rating (blackgrass; [10]): 0 | Blackgrass plant response rating (blackgrass; [16]): 0 | Blackgrass plant response rating (blackgrass; [18]): 0 | Plant response rating (0 to 10; 0 is no effect, 10 is complete control), Blackgrass (blackgrass; Rate 250 g/ha, Postemergence): 0 | Blackgrass plant response rating (blackgrass; [12]): 0 | Sugarbeets plant response rating (sugar beet; [6]): 0 | Sugarbeets plant response rating (sugar beet; [19]): 0 | Plant response rating, Sugarbeets (sugar beet; [14]): 0 | Sugarbeets plant response rating (sugar beet; [10]): 0 | Sugarbeets plant response rating (sugar beet; [16]): 0 | Sugarbeets plant response rating (sugar beet; [18]): 0 | Plant response rating (0 to 10; 0 is no effect, 10 is complete control), Sugarbeets (sugar beet; Rate 250 g/ha, Postemergence): 0 | Sugarbeets plant response rating (sugar beet; [12]): 0

— patent publication US6737383B1, “Herbicidal oxadiazolidines” (priority 1999, dated 2004)
